Test results taken from ChEMBL document CHEMBL1156573, “Design and synthesis of a novel series of N-alkyl isatin acylhydrazone derivatives that act as selective cannabinoid receptor 2 agonists for the treatment of neuropathic pain” (J Med Chem, 2008).
Active and inactive are the calls of the source. The rule behind the calls is not given here.

What was measured:
[1] = molecular target: Cannabinoid receptor 1 (Homo sapiens) (UniProt P21554); assay: Displacement of [3H]CP-55940 from human CB1 receptor expressed in CHO cells at 10 uM by liquid scintillation counting; format: cell-based
Sequence of Cannabinoid receptor 1 (Homo sapiens) (P21554 whole entry): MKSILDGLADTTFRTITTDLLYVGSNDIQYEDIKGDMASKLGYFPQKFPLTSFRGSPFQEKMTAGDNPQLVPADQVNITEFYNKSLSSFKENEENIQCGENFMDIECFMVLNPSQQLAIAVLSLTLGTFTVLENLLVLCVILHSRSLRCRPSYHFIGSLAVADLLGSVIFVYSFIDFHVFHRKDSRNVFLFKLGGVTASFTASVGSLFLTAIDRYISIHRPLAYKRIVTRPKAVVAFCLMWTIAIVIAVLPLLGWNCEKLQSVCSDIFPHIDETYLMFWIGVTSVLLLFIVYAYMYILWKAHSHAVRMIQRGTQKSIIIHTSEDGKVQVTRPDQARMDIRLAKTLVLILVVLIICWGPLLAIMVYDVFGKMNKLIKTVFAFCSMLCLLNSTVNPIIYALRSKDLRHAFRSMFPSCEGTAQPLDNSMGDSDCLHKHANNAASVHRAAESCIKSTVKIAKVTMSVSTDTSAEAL

Cannabinoid receptor 2 [2] = molecular target: T1, Cannabinoid receptor 2 (Homo sapiens, UniProt P34972); assay: Displacement of [3H](R)-3-methyl-2-(3-(morpholinomethyl)-3,4-dihydro-2H-benzo[b][1,4]oxazin-5-yl)-1-(naphthalen-1-yl)but-2-en-1-one from human CB2 receptor expressed in CHO cells at 10 uM by liquid scintillation counting; format: cell-based
T1 sequence (P34972 whole entry): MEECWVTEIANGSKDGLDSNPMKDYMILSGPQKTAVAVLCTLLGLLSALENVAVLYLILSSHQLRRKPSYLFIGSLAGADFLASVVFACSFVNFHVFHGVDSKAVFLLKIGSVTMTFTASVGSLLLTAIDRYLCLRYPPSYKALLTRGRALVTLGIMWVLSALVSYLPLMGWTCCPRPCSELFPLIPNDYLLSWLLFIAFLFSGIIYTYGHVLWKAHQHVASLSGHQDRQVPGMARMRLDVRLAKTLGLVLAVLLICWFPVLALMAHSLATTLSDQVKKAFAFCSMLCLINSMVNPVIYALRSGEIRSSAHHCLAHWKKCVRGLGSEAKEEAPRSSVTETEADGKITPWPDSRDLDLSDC

[3] = molecular target: Cannabinoid receptor 1 (Homo sapiens) (UniProt P21554); assay: Displacement of [3H]CP-55940 from human CB1 receptor expressed in CHO cells at 1 uM by liquid scintillation counting; format: cell-based
Cannabinoid receptor 2 [4] = molecular target: T1, Cannabinoid receptor 2; assay: Displacement of [3H](R)-3-methyl-2-(3-(morpholinomethyl)-3,4-dihydro-2H-benzo[b][1,4]oxazin-5-yl)-1-(naphthalen-1-yl)but-2-en-1-one from human CB2 receptor expressed in CHO cells at 1 uM by liquid scintillation counting; format: cell-based
[5] = molecular target: Cannabinoid receptor 1 (Homo sapiens) (UniProt P21554); assay: Agonist activity at human CB1 receptor expressed in CHO cells by [35S]GTPgammaS assay relative to CP-55940; format: functional, cell-based
Cannabinoid receptor 2 [6] = molecular target: T1, Cannabinoid receptor 2; assay: Agonist activity at human CB2 receptor expressed in CHO cells by [35S]GTPgammaS assay relative to CP-55940; format: functional, cell-based
[7] = molecular target: Cannabinoid receptor 1 (Homo sapiens) (UniProt P21554); assay: Agonist activity at human CB1 receptor expressed in CHO cells at 10 uM by [35S]GTPgammaS assay; format: functional, cell-based
Cannabinoid receptor 2 [8] = molecular target: T1, Cannabinoid receptor 2; assay: Agonist activity at human CB2 receptor expressed in CHO cells at 3 uM by [35S]GTPgammaS assay relative to CP-55940; format: functional, cell-based
[9] = molecular target: Cannabinoid receptor 1 (Homo sapiens) (UniProt P21554); assay: Agonist activity at human CB1 receptor expressed in CHO cells at 3 uM by [35S]GTPgammaS assay relative to CP-55940; format: functional, cell-based
Cannabinoid receptor 2 [10] = molecular target: T1, Cannabinoid receptor 2; assay: Displacement of [3H]CP-55940 from human CB2 receptor expressed in CHOK1 cells by liquid scintillation counting; format: cell-based, CHO-K1
Rattus norvegicus [11] = assay: Antiallodynic activity in AM-630-pretreated ip dosed spinal nerve ligated Sprague-Dawley rat model assessed as inhibition of tactile allodynia; format: functional, organism-based
Cannabinoid receptor 2 [12] = molecular target: T1, Cannabinoid receptor 2; assay: Agonist activity at human CB2 receptor expressed in CHO cells by [35S]GTPgammaS assay; format: functional, cell-based
Rattus norvegicus [13] = assay: Antiallodynic activity in spinal nerve ligated Sprague-Dawley rat model assessed as inhibition of tactile allodynia at 10 mg/kg, ip; format: functional, organism-based; parameters: dose 10 mg/kg
Rattus norvegicus [14] = assay: Antiallodynic activity in spinal nerve ligated Sprague-Dawley rat model assessed as inhibition of tactile allodynia at 15 mg/kg, ip; format: functional, organism-based; parameters: dose 15 mg/kg
Rattus norvegicus [15] = assay: Toxicity in Sprague-Dawley rat assessed as exploratory behavior at 15 mg/kg, ip by open-field chamber test; format: organism-based; parameters: dose 15 mg/kg, route intraperitoneal; conditions: in vivo
Rattus norvegicus [16] = assay: Antiallodynic activity in ip dosed spinal nerve ligated Sprague-Dawley rat model assessed as inhibition of tactile allodynia; format: functional

Structure (SMILES)	Activity [3]	Activity (Cannabinoid receptor 2 [4])	Emax (Cannabinoid receptor 2 [6])	also measured
O=C1/C(=N\NS(=O)(=O)c2ccccc2)c2ccccc2N1CCC1CCCCC1				Activity [1]: < 40%; Activity (Cannabinoid receptor 2 [2]): < 40%
O=C(N/N=C1\C(=O)N(CCN2C(=O)c3ccccc3C2=O)c2ccccc21)c1ccccc1	3%	3%		
O=C(Cc1ccccc1)N/N=C1\C(=O)N(CCC2CCCCC2)c2ccccc21			21%	Emax [5]: 75%; Activity [1]: 88.8%; Activity (Cannabinoid receptor 2 [2]): 47.2%
CCCCCCN1C(=O)/C(=N\NC(=O)c2ccc(Cl)cc2)c2ccccc21	46.6%	32.7%		
O=C(N/N=C1\C(=O)N(c2ccccc2)c2ccccc21)c1ccccc1	18%	8%		
CCCCCCN1C(=O)/C(=N\NC(=O)c2ccccc2)c2cccc(Cl)c21	60%	29%	64.8%	Activity [7]: inactive; Activity [5]: inactive
CCCCCCN1C(=O)/C(=N\NC(=O)c2ccccc2)c2cc(OC)ccc21	26%	17%		
CCCCCCN1C(=O)/C(=N\NC(=O)c2ccccc2)c2cc(C)ccc21	22%	1%		
CCCCCN1C(=O)/C(=N\NC(=O)c2ccccc2)c2ccccc21	95%	80%	68.5%	Emax [5]: 95.1%
CCCCCCN1C(=O)/C(=N/NS(=O)(=O)c2ccccc2)c2ccccc21				Activity [1]: < 40%; Activity (Cannabinoid receptor 2 [2]): < 40%
CCCCCCN1C(=O)/C(=N\NC(=O)c2ccccc2)c2cccc(I)c21	61%	66%		Activity [7]: inactive; Activity [5]: inactive; Emax (Cannabinoid receptor 2 [8]): 55%
CCCCCCN1C(=O)/C(=N\NC(=O)c2ccc(OC)cc2)c2ccccc21	81.7%	56%	49.5%	Emax [5]: 71%
O=C1/C(=N\NC(=S)Nc2ccccc2)c2ccccc2N1CCC1CCCCC1				Activity [1]: < 40%; Activity (Cannabinoid receptor 2 [2]): < 40%
O=C(N/N=C1\C(=O)N(CCC2CCCCC2)c2ccccc21)Nc1ccccc1				Activity [1]: < 40%; Activity (Cannabinoid receptor 2 [2]): < 40%
CCCCCCN1C(=O)/C(=N\NC(=O)Cc2ccccc2)c2ccccc21			45.8%	Emax [5]: 71.9%; Activity [1]: 98.2%; Activity (Cannabinoid receptor 2 [2]): 91.5%
CCCCCCN1C(=O)/C(=N\NC(=O)c2ccc3ccccc3c2)c2ccccc21	< 30%	< 30%		
CCCN1C(=O)/C(=N\NC(=O)c2ccccc2)c2ccccc21	43%	32%	61.4%	Activity [7]: inactive; Activity [5]: inactive
CCCCCCN1C(=O)/C(=N\NC(=O)c2ccccc2)c2cc(Cl)ccc21	9%	6%		
CCCCCCN1C(=O)/C(=N\NC(=S)Nc2ccccc2)c2ccccc21				Activity [1]: 49%; Activity (Cannabinoid receptor 2 [2]): 37.7%

Structure (SMILES)	Activity [3]	Activity (Cannabinoid receptor 2 [4])	Emax (Cannabinoid receptor 2 [6])	also measured
CCCCCCN1C(=O)/C(=N\NC(=O)C2CCCCC2)c2ccccc21	65.8%	61%	58%	Emax [9]: 40.9%
O=C(N/N=C1\C(=O)N(Cc2ccc(Cl)cc2)c2ccccc21)c1ccccc1	94.5%	22%	39.8%	Emax [5]: 72%
CCCCCCN1C(=O)/C(=N\NC(=O)OC(C)(C)C)c2ccccc21	85.1%	82.3%	43.4%	Emax [5]: 92%; Ki (Cannabinoid receptor 2 [10]): 13.9 nM
CCCCCCN1C(=O)/C(=N\NC(=O)C23CC4CC(CC(C4)C2)C3)c2ccccc21	82.6%	90.7%		Emax [9]: 34.6%; Emax (Cannabinoid receptor 2 [8]): 32.1%
CCCCCCN1C(=O)/C(=N\NC(=O)c2ccccc2)c2cc(F)ccc21	57%	46%	33.8%	Activity [7]: inactive; Activity [5]: inactive
CCCCCCN1C(=O)/C(=N\NC(=O)Nc2ccccc2)c2ccccc21				Activity [1]: < 40%; Activity (Cannabinoid receptor 2 [2]): < 40%
CN1CCCCC1Cn1cc(C(=O)c2cc([N+](=O)[O-])ccc2I)c2ccccc21 (configuration not stated)				Activity (Rattus norvegicus [11]): inactive
CCCCCCN1C(=O)/C(=N\NC(=O)c2cc3ccccc3s2)c2ccccc21	< 30%	< 30%		
O=C(N/N=C1\C(=O)N(Cc2ccccc2)c2ccccc21)c1ccccc1	87%	55%	92.7%	Emax [9]: 57%; Emax [5]: 57%; EC50 (Cannabinoid receptor 2 [12]): 63.7 nM; Ki (Cannabinoid receptor 2 [10]): 18.5 nM
CCCCCCN1C(=O)/C(=N\NC(=O)c2cccc3ccccc23)c2ccccc21	83.9%	69.8%	30.5%	Emax [9]: 12.9%
CCCCCCN1C(=O)/C(=N\NC(=O)CCCCC)c2ccccc21	45.2%	36.6%		
CCCCCCN1C(=O)/C(=N\NC(=O)c2ccccc2)c2cccc(C)c21	67%	68%	34.2%	Activity [7]: inactive; Activity [5]: inactive
CCCCN1C(=O)/C(=N\NC(=O)c2ccccc2)c2ccccc21	86%	70%	98.9%	Emax [9]: 69%; Ki (Cannabinoid receptor 2 [10]): 19.3 nM
O=C(N/N=C1\C(=O)N(CCC2CCCCC2)c2ccccc21)c1ccccc1			55.6%	Emax [5]: 56.8%; Activity [1]: 96%; Activity (Cannabinoid receptor 2 [2]): 79.8%; Ki (Cannabinoid receptor 2 [10]): 58.8 nM
CCCCCN1C(=O)/C(=N\NC(=O)c2ccccc2)c2cc(I)ccc21	25%	10%		
O=C(N/N=C1\C(=O)N(CC2CCCCC2)c2ccccc21)c1ccccc1	99%	100%	65.7%	Emax [5]: 99%
CCCCCCN1C(=O)/C(=N/NC(=O)OC(C)(C)C)c2ccccc21	75%	27%		Activity [9]: inactive; Activity [7]: inactive; Emax (Cannabinoid receptor 2 [8]): 23.4%
CCCCCCCCCCCCN1C(=O)/C(=N\NC(=O)c2ccccc2)c2ccccc21	23.8%	24.3%		
CCCCCCN1C(=O)/C(=N\NC(=O)c2ccccc2)c2ccccc21			68.8%	Emax [5]: 59.7%; Activity [1]: 95.5%; Activity (Rattus norvegicus [13]): Active; Activity (Rattus norvegicus [14]): Active; Activity (Cannabinoid receptor 2 [2]): 92.8%; Activity (Rattus norvegicus [15]): Non-toxic; Ki (Cannabinoid receptor 2 [10]): 44.3 nM; ED90 (Rattus norvegicus [16]): 12 mg/kg
